Test in all cases: MIC / FIC index synergy test, 96-well microplate, optical density at 620 nm
Common to all, as to format: cell-based

The subject of test [1] is Candida albicans ATCC 10231. The settings on record: compound alone; for MIC alone: first concentration giving growth <= 25%. The text has this: FIC Index=([…]) with: • MICa with B: minimum concentration of product A in the combination A+B which makes it possible to obtain an inhibitory effect • MICb with A: minimum concentration of product B in the combination A+B which makes it possible to obtain an inhibitory effect. • MICa: minimum inhibitory concentration of product A alone. • MICb: minimum inhibitory concentration of product B alone. […] The microbial strain Candida albicans ATCC 10231 and a double-concentration Sabouraud broth liquid culture medium were used. A 96-well microplate and an incubation temperature of 32.5° C. are used. […] Successive dilutions were made with the 1‰ agar solution. 50 μl of each of the daughter solutions obtained containing compound A or B are added to the microplate wells. 100 μl of Sabouraud liquid nutrient broth inoculated at double concentration with the strain Candida albicans and 50 μl of aqueous 1‰ agar solution are also added thereto. 50 μl of each of the daughter solutions obtained containing compound A and 50 μl of each of the daughter solutions obtained containing compound B are added to the microplate wells. 100 μl of Sabouraud liquid nutrient broth inoculated at double concentration with the strain Candida albicans are also added thereto. In the two cases (test and control), the inoculum represents the concentration of the strain Candida albicans present in the final volume of the wells (200 μl) and is between 2 and 6χ 10^5 cfu/ml of Candida albicans.

Test [2] concerns Aspergillus niger ATCC 6275.
Test [3] has as its system Enterococcus faecalis ATCC 33186. The note with it: compound alone; for % MIC alone: first concentration giving growth <= 25%. The text has this: (§1) FIC Index=([…]) with: • MICa with B: minimum concentration of product A in the combination A+B which makes it possible to obtain an inhibitory effect • MICb with A: minimum concentration of product B in the combination A+B which makes it possible to obtain an inhibitory effect. • MICa: minimum inhibitory concentration of product A alone. • MICb: minimum inhibitory concentration of product B alone. […] As regards the combinations tested, MICa with b and MICb with a are the respective concentrations of A and of B in the combinations which make it possible to obtain a microbial growth percentage of less than or equal to 25%. […] The microbial strain Enterococcus faecalis ATCC 33186 and a double-concentration BHI (Brain Heart Infusion) broth liquid culture medium were used. A 96-well microplate and an incubation temperature of 32.5° C. are used. […] Successive dilutions were made with the 1‰ agar solution. 50 μl of each of the daughter solutions obtained containing compound A or B are added to the microplate wells. 100 μl of Sabouraud liquid nutrient broth inoculated at double concentration with the strain Candida albicans and 50 μl of aqueous 1‰ agar solution are also added thereto. 50 μl of each of the daughter solutions obtained containing compound A and 50 μl of each of the daughter solutions obtained containing compound B are added to the microplate wells. 100 μl of Sabouraud liquid nutrient broth inoculated at double concentration with the strain Candida albicans are also added thereto. […] The test as described above (tests, absorbance controls and growth control) was performed again to test the combination A+B on the following strains Enterococcus faecalis, Staphylococcus aureus, Pseudomonas aeruginosa, Candida albicans.

Test [4] concerns Staphylococcus aureus ATCC 6538. The note with it: compound alone; for MIC alone: first concentration giving growth <= 25%. The text has this:
FIC Index=([…]) with: • MICa with B: minimum concentration of product A in the combination A+B which makes it possible to obtain an inhibitory effect • MICb with A: minimum concentration of product B in the combination A+B which makes it possible to obtain an inhibitory effect. • MICa: minimum inhibitory concentration of product A alone. • MICb: minimum inhibitory concentration of product B alone. […] As regards the combinations tested, MICa with b and MICb with a are the respective concentrations of A and of B in the combinations which make it possible to obtain a microbial growth percentage of less than or equal to 25%. When the FIC index value is less than or equal to 1, it is considered that the combination of test compounds has a synergistic effect. The microbial strain Staphylococcus aureus ATCC 6538 and a double-concentration nutritive broth liquid culture medium were used. A 96-well microplate and an incubation temperature of 32.5° C. are used. […] Successive dilutions were made with the 1‰ agar solution. 50 μl of each of the daughter solutions obtained containing compound A or B are added to the microplate wells. 100 μl of Sabouraud liquid nutrient broth inoculated at double concentration with the strain Candida albicans and 50 μl of aqueous 1‰ agar solution are also added thereto. 50 μl of each of the daughter solutions obtained containing compound A and 50 μl of each of the daughter solutions obtained containing compound B are added to the microplate wells. 100 μl of Sabouraud liquid nutrient broth inoculated at double concentration with the strain Candida albicans are also added thereto. […] The test as described above (tests, absorbance controls and growth control) was performed again to test the combination A+B on the following strains Enterococcus faecalis, Staphylococcus aureus, Pseudomonas aeruginosa, Candida albicans.

Test [5] deals with Pseudomonas aeruginosa ATCC 9027. The note with it: for MIC of compound alone: first concentration giving growth <= 25%; for microbial growth percentage: compound alone.
Description: as §1, with “strain Pseudomonas aeruginosa” for “strain Enterococcus faecalis”, “ATCC 9027” for “ATCC 33186”, “double-concentration nutritive” for “double-concentration BHI (Brain Heart Infusion)”

The mark [6] stands for this setting: first concentration giving growth <= 25%.

On to `CCCCCCCC(=O)c1ccc(O)c(C(=O)O)c1` [B6, 5-n-octanoylsalicylic acid], for which the microbial growth percentage in test [1] (0.0125 weight %) was determined as 66%; in test [1] (0.025 weight %), 40%; in test [1] (0.05 weight %) it was 30%; in test [1] (0.1 weight %) it was 1%; in test [2] (compound alone, 0.025 weight %), 98%; in test [2] (compound alone, 0.05 weight %), 97%. In addition, the microbial growth percentage in test [2] (compound alone, 0.1 weight %) is on record as 17%; in test [3] (0.0125 weight %) it was 28%; in test [3] (0.025 weight %) it was 2%. For the same molecule, the MIC alone in test [1] is 0.1 weight %. The “MIC of compound alone” value in test [2] (setting [6]) is 0.1 weight %. Besides, in test [3], the “% MIC alone” value was 0.025 weight %.
For the molecule `C/C=C/C=C/C(=O)O` [B2, sorbic acid], the microbial growth percentage in test [4] (0.125 weight %) is 52%; in test [4] (0.25 weight %), 28%; in test [4] (0.5 weight %), −5%; in test [1] (0.025 weight %), 37%; in test [1] (0.05 weight %) it was 24%; in test [1] (0.1 weight %) it was 21%. Moreover, the microbial growth percentage came to 98% in test [2] (compound alone, 0.0125 weight %); 95% in test [2] (compound alone, 0.25 weight %); 8% in test [2] (compound alone, 0.5 weight %); 53% in test [3] (0.25 weight %); 78% in test [3] (0.5 weight %); 0% in test [3] (1 weight %). Also, the MIC alone is 0.5 weight % in test [4] and 0.1 weight % in test [1]. Also, the “MIC of compound alone” value in test [5] and in test [2] (setting [6]) was 0.5 weight % each time. The “% MIC alone” value in test [3] amounted to 1 weight %.
`CCCOC(=O)c1ccc(O)cc1` [B5, propyl 4-hydroxybenzoate]: the microbial growth percentage amounted to 52% in test [1] (0.025 weight %); 33% in test [1] (0.05 weight %); 21% in test [1] (0.1 weight %); 76% in test [5] (0.125 weight %); 45% in test [5] (0.25 weight %); 42% in test [5] (0.5 weight %). Further, the microbial growth percentage in test [5] (1 weight %) turned out to be 24%. Further, the MIC alone in test [1] was 0.1 weight %. Further, in test [5], the “MIC of compound alone” value came out at 1 weight %.
Turning to `CC(=O)c1c([O-])cc(C)oc1=O.[Na+]` [B8, sodium dehydroacetate], the microbial growth percentage worked out at 28% in test [1] (0.00125 weight %); 15% in test [1] (0.0025 weight %); 97% in test [2] (compound alone, 0.0025 weight %); 29% in test [2] (compound alone, 0.005 weight %); 3% in test [2] (compound alone, 0.01 weight %); 3% in test [2] (compound alone, 0.02 weight %). In addition, the MIC alone in test [1] came to 0.0025 weight %. Also, the “MIC of compound alone” value in test [2] (setting [6]) was 0.02 weight %.
For the molecule `COC(=O)c1ccc(O)cc1` [B4, methyl 4-hydroxybenzoate], the microbial growth percentage in test [4] (0.25 weight %) was found to be 51%; in test [4] (0.5 weight %), 44%; in test [4] (1 weight %), 19%; in test [1] (0.025 weight %), 67%; in test [1] (0.05 weight %) it was 40%; in test [1] (0.1 weight %) it was 28%. Besides, the microbial growth percentage is 12% in test [1] (0.2 weight %); 187% in test [5] (0.0625 weight %); 150% in test [5] (0.125 weight %); 142% in test [5] (0.25 weight %); 1% in test [5] (0.5 weight %). The MIC alone in test [4] is listed as 1 weight %; in test [1], 0.2 weight %. For the same molecule, the “MIC of compound alone” value in test [5] was determined as 0.5 weight %.
Consider `O=C([O-])c1ccccc1.[Na+]` [B1, sodium benzoate], for which the microbial growth percentage was 51% in test [4] (0.0625 weight %); 34% in test [4] (0.125 weight %); 31% in test [4] (0.25 weight %); 5% in test [4] (0.5 weight %); 55% in test [1] (0.025 weight %); 33% in test [1] (0.05 weight %). In addition, the microbial growth percentage in test [1] (0.1 weight %) is on record as 24%; in test [1] (0.2 weight %), 11%; in test [5] (0.0625 weight %) it was 93%; in test [5] (0.125 weight %), 96%; in test [5] (0.25 weight %), 116%; in test [5] (0.5 weight %) it was 89%. The microbial growth percentage in test [5] (1 weight %) was found to be 0%. In addition, the MIC alone in test [4] was 0.5 weight %; in test [1], 0.2 weight %. Besides, the “MIC of compound alone” value in test [5] was determined as 1 weight %.
Turning to `C/C=C/C=C/C(=O)[O-].[K+]` [B3, potassium sorbate], the microbial growth percentage worked out at 58% in test [2] (compound alone, 0.025 weight %); 37% in test [2] (compound alone, 0.05 weight %); 10% in test [2] (compound alone, 0.1 weight %); 22% in test [3] (1 weight %); 10% in test [3] (2 weight %). The “% MIC alone” value in test [2] (compound alone, first concentration giving growth <= 25%) is on record as 0.1 weight %; in test [3], 2 weight %.

The values are drawn from US20230247991A1, “ANTIMICROBIAL MIXTURE CONTAINING 4-(3-ETHOXY-4-HYDROXYPHENYL)BUTAN-2-ONE AND AN ORGANIC ACID COMPOUND, AND COSMETIC COMPOSITION CONTAINING SAME” (L'OREAL, priority 2017, published 2023).
